Holding throughout (type): cell-based
For experiment [1], the system named is MCF7. Nature of the experiment: Single drug treatments, viability/toxicity. The settings on record: for toxicity towards MCF7: doses up to 25 µM.
The subject of experiment [2] is MCF10A. Nature of the experiment: Single drug treatments, viability/toxicity. Conditions: Homo sapiens, MCF-10A, read-out: MCF10A IC50. The text has this:
(§1) In our experiments, breast cancer cells were exemplified by MCF7 (an epithelial breast cancer cell line); non-tumorigenic breast cells were exemplified by the epithelial cell line MCF10A. We provided GPT4 with a prompt that had several aims:
(§2) In an additional experiment, 12 drugs were retested from the first round (n ≥ 3 replicates). An ANOVA two-way test with three replicates was used to calculate the significance of changes to viability compared with the internal control drug allopurinol for both cell lines (electronic supplementary material, figures S6 and S7). Two of the retested drugs were initially used as positive controls for MCF7 (doxorubicin and fulvestrant).

Experiment [3] relates to MCF7 versus MCF10A. Nature of the experiment: Single drug specificity towards MCF7 compared with MCF10A. Conditions: first round, MCF7 versus MCF10A viability.
Experiment [4] relates to MCF7. Nature of the experiment: Single drug treatments, viability/toxicity. The settings on record: for reduction of viability of MCF7: two-way ANOVA vs allopurinol, concentrations up to 3.84 µM; for IC50: Homo sapiens, MCF7, retest of drugs from first round, n ≥ 3 replicates, MCF7.
Excerpt: as §1, §2

[5] abbreviates: Homo sapiens, MCF7, single drug, first round, maximum dose 25 µM, read-out: MCF7 IC50.
The mark [6] stands for this setting: single drug, first round, maximum dose 25 µM.
Where [7] appears, read: Homo sapiens, MCF7, read-out: MCF7 IC50.

“Also recorded” adds a separate entry of the source. Like-named read-outs stand apart in the source and are kept apart here.

One may read the IC50 as the concentration at which inhibition is half-maximal. Consider `C[C@H]1O[C@H](O[C@H]2[C@H](O)[C@@H](O)[C@@H](O[C@H]3[C@H](O)[C@@H](O)C(O)O[C@@H]3CO)O[C@@H]2CO)[C@H](O)[C@@H](O)[C@@H]1N[C@H]1C=C(CO)[C@@H](O)[C@H](O)[C@H]1O` (stereo partly drawn) [acarbose], for which the IC50 in experiment [1] (setting [5]) and in experiment [2] (setting [6]) was more than 25 µM in each case.

Regarding `Oc1ncnc2[nH]ncc12` [allopurinol], the IC50 in experiment [1] (setting [5]) and in experiment [2] (setting [6]) was more than 25 µM throughout.

Regarding `CC(C)NCC(O)COc1ccc(CC(N)=O)cc1` (stereo not drawn) [atenolol], the IC50 in experiment [1] (setting [5]) and in experiment [2] (setting [6]) was more than 25 µM throughout.

For `CC(C)c1c(C(=O)Nc2ccccc2)c(-c2ccccc2)c(-c2ccc(F)cc2)n1CC[C@@H](O)C[C@@H](O)CC(=O)O` [atorvastatin], the IC50 in experiment [1] (setting [5]) was more than 25 µM; in experiment [2] (setting [6]), 3.79 µM.

As for `Cc1ccc(-c2cc(C(F)(F)F)nn2-c2ccc(S(N)(=O)=O)cc2)cc1` [celecoxib], the IC50 in experiment [1] (setting [5]) turned out to be 5.33 µM; in experiment [2] (setting [6]), 22.6 µM. In addition, the “toxicity towards MCF7” value in experiment [1] (single drug, first round) is given as “showed toxicity towards MCF7”.

Consider `O=C(O)COCCN1CCN(C(c2ccccc2)c2ccc(Cl)cc2)CC1` (stereo not drawn) [cetirizine], for which the IC50 in experiment [1] (setting [5]) and in experiment [2] (setting [6]) was more than 25 µM each time.

For the compound `CCN(CC)CCCC(C)Nc1ccnc2cc(Cl)ccc12` (stereo not drawn) [chloroquine], the IC50 was 10.6 µM in experiment [1] (Homo sapiens, MCF7); more than 25 µM in experiment [1] (setting [7]); more than 25 µM in experiment [2]. For the same compound, in experiment [1] (single drug, first round), the “toxicity towards MCF7” value is given as “showed toxicity towards MCF7”.

Regarding `CN/C(=N/CCSCc1nc[nH]c1C)NC#N` [cimetidine], the IC50 in experiment [1] (setting [5]) and in experiment [2] (setting [6]) was more than 25 µM in each case. Further, the “toxicity towards MCF7” value in experiment [1] (single drug, first round) is “showed toxicity towards MCF7”.

As to `O=P1(N(CCCl)CCCl)NCCCO1` (stereo not drawn) [cyclophosphamide], the IC50 in experiment [1] (setting [7]) and in experiment [2] was more than 25 µM in each case.

For `OCCN(CCO)c1nc(N2CCCCC2)c2nc(N(CCO)CCO)nc(N3CCCCC3)c2n1` [dipyridamole], the “specificity towards MCF7” value in experiment [3] is “high specificity towards MCF7”. Moreover, the IC50 in experiment [1] (setting [5]) and in experiment [2] (setting [6]) was more than 25 µM each time. For the same compound, the “reduction of viability of MCF7” value in experiment [4] (retest n ≥ 3) is reported as “significantly reduced the viability of MCF7”.

For the compound `CCN(CC)C(=S)SSC(=S)N(CC)CC` [disulfiram], the “specificity towards MCF7” value in experiment [3] is “high specificity towards MCF7”. The IC50 was 0.204 µM in experiment [1] (setting [5]), more than 25 µM in experiment [2] (setting [6]) and 59 nM in experiment [4].

As to `COc1cccc2c1C(=O)c1c(O)c3c(c(O)c1C2=O)C[C@@](O)(C(=O)CO)C[C@@H]3O[C@H]1C[C@H](N)[C@H](O)[C@H](C)O1` [doxorubicin], the IC50 in experiment [1] (single drug, first round, maximum dose 25 µM, read-out: MCF7 IC50) is less than 25 µM; in experiment [4] it was 300 nM. Moreover, the “reduction of viability of MCF7” value in experiment [4] (retest n ≥ 3) is given as “also targeted MCF7”.

Take `C[C@]12CC[C@@H]3c4ccc(O)cc4C[C@@H](CCCCCCCCC[S+]([O-])CCCC(F)(F)C(F)(F)F)[C@H]3[C@@H]1CC[C@@H]2O` (stereo partly drawn) [fulvestrant]: the “specificity towards MCF7” value in experiment [3] is “showed preference for MCF7”. The IC50 in experiment [1] (setting [5]) and in experiment [2] (setting [6]) was more than 25 µM throughout. Besides, the “reduction of viability of MCF7” value in experiment [4] (retest n ≥ 3) is listed as “also targeted MCF7”.

With `NS(=O)(=O)c1cc(C(=O)O)c(NCc2ccco2)cc1Cl` [furosemide], the IC50 in experiment [1] (setting [5]) and in experiment [2] (setting [6]) was more than 25 µM each time.

As for `CCN(CCO)CCCC(C)Nc1ccnc2cc(Cl)ccc12` (stereo not drawn) [hydroxychloroquine], the IC50 in experiment [1] (setting [5]) and in experiment [2] (setting [6]) was more than 25 µM in each case. The “toxicity towards MCF7” value in experiment [1] (single drug, first round) is “showed toxicity towards MCF7”. Also, the “toxicity to MCF7” value in experiment [4] (retest n ≥ 3, hydroxychloroquine statement at 25 µM) is “persistent and substantial”.

Turning to `CCC(C)n1ncn(-c2ccc(N3CCN(c4ccc(OCC5COC(Cn6cncn6)(c6ccc(Cl)cc6Cl)O5)cc4)CC3)cc2)c1=O` (stereo not drawn) [itraconazole], the IC50 in experiment [1] (setting [5]) and in experiment [2] (setting [6]) was more than 25 µM in each case. The “toxicity towards MCF7” value in experiment [1] (single drug, first round) is listed as “showed toxicity towards MCF7”.

Turning to `COC(=O)Nc1nc2ccc(C(=O)c3ccccc3)cc2[nH]1` [mebendazole], the “specificity towards MCF7” value in experiment [3] is given as “high specificity towards MCF7”. For the same compound, the IC50 is more than 25 µM in experiment [1] (setting [5]) and 15 µM in experiment [2] (setting [6]). Further, the “toxicity towards MCF7” value in experiment [1] (single drug, first round) is recorded as “showed toxicity towards MCF7”.

`CC12CC3CC(C)(C1)CC(N)(C3)C2` [memantine]: the IC50 in experiment [1] (setting [5]) and in experiment [2] (setting [6]) was more than 25 µM in each case.

In the case of `Cc1ncc([N+](=O)[O-])n1CCO` [metronidazole], the IC50 in experiment [1] (setting [5]) and in experiment [2] (setting [6]) was more than 25 µM throughout.

`O=C(Nc1ccc([N+](=O)[O-])cc1Cl)c1cc(Cl)ccc1O` [niclosamide]: the IC50 in experiment [1] (setting [5]) stood at 0.699 µM; in experiment [2] (setting [6]) it was 0.061 µM; in experiment [4], 1220 nM. Moreover, the “toxicity towards MCF7” value in experiment [1] (single drug, first round) was “comparatively high toxicity; also recorded: showed toxicity towards MCF7”. Further, the “reduction of viability of MCF7” value in experiment [4] (retest n ≥ 3) was “significantly reduced the viability of MCF7”.

For `COc1ccc2[nH]c([S+]([O-])Cc3ncc(C)c(OC)c3C)nc2c1` (stereo not drawn) [omeprazole], the IC50 in experiment [1] (setting [5]) and in experiment [2] (setting [6]) was more than 25 µM throughout.

As to `CC(=O)c1c(C)c2cnc(Nc3ccc(N4CCNCC4)cn3)nc2n(C2CCCC2)c1=O` [palbociclib], the IC50 in experiment [1] (setting [5]) and in experiment [2] (setting [6]) was more than 25 µM in each case.

Turning to `CCN(CC)CCCC(C)Nc1c2ccc(Cl)cc2nc2ccc(OC)cc12` (stereo not drawn) [quinacrine], the “specificity towards MCF7” value in experiment [3] is “high specificity towards MCF7”. Moreover, the IC50 in experiment [1] (setting [5]) was found to be 3.85 µM; in experiment [2] (setting [6]), 10.2 µM; in experiment [4], 4710 nM. Besides, in experiment [1] (single drug, first round), the “toxicity towards MCF7” value is reported as “showed toxicity towards MCF7”. Also, the “reduction of viability of MCF7” value in experiment [4] (retest n ≥ 3) is on record as “significantly reduced the viability of MCF7”.

Consider `CCCc1nn(C)c2c(=O)[nH]c(-c3cc(S(=O)(=O)N4CCN(C)CC4)ccc3OCC)nc12` [sildenafil], for which the IC50 in experiment [1] (setting [5]) and in experiment [2] (setting [6]) was more than 25 µM each time. Besides, the “toxicity towards MCF7” value in experiment [1] (single drug, first round) is “showed toxicity towards MCF7”.

As for `CCC(C)(C)C(=O)O[C@H]1C[C@@H](C)C=C2C=C[C@H](C)[C@H](CC[C@@H]3C[C@@H](O)CC(=O)O3)[C@H]21` [simvastatin], the IC50 worked out at 5.63 µM in experiment [1] (setting [5]) and 7.17 µM in experiment [2] (setting [6]). Further, the “toxicity towards MCF7” value in experiment [1] (single drug, first round) is listed as “showed toxicity towards MCF7”.

Values taken from article PMC12134935, “Scientific hypothesis generation by large language models: laboratory validation in breast cancer treatment” (Journal of the Royal Society Interface, 2025).
